Activity calls are given as the source filed them.
Columns and labels:
PC-12 [1] = assay: Antioxidant activity in t-BHP -induced rat PC12 cells at 2.5 to 20 uM; assay type: functional, cell-based; settings: dose 2.5-20 µM
Rattus norvegicus [2] = assay: Neuroprotective activity against cerebral ischemia-reperfusion injury in MCAO rat model assessed as decrease in apoptotic cells in cerebral brain at 10 mg/kg, iv treated after 2 hrs ischemia followed by reperfusion measured after 1 week of post-reperfusion by TUNEL staining based analysis; assay type: functional, organism-based; settings: time 1.0 weeks
PC-12 [3] = assay: Neuroprotective activity against t-BHP induced oxidative damage in rat PC12 cells model assessed as attenuation of intracellular ROS level at 5 uM incubated for 24 hrs by DCFH-DA probe based analysis; assay type: functional, cell-based
[4] = Permeability of the compound across blood brain barrier in mouse BEND3 cells at 10 uM incubated for 24 to 48 hrs by HPLC analysis; assay type: ADME, cell-based; settings: time 24-48 hrs, read-out: permeability
PC-12 [5] = assay: Neuroprotective activity against t-BHP induced oxidative damage in rat PC12 cells model assessed as cell viability at 10 uM incubated for 24 hrs by CCK-8 assay relative to control; assay type: functional; settings: read-out: Activity
Rattus norvegicus [6] = assay: Neuroprotective activity against cerebral ischemia-reperfusion injury in MCAO rat model assessed as reduction in infarct area at 20 mg/kg, iv treated after 2 hrs ischemia followed by reperfusion measured after 1 week of post-reperfusion by TTC staining based analysis; assay type: functional, organism-based; settings: time 1.0 weeks
Rattus norvegicus [7] = assay: Neuroprotective activity against cerebral ischemia-reperfusion injury in MCAO rat model assessed as reduction in ROS accumulation in cortex at 5 to 20 mg/kg, iv treated after 2 hrs ischemia followed by reperfusion measured after 1 week of post-reperfusion by dihydroethidium staining based fluorescence microscopic analysis; assay type: functional, organism-based; settings: dose 5-20 mg/kg, time 1.0 weeks
Rattus norvegicus [8] = assay: […] of HO-1 level rat model at 5 to 20 mg/kg, iv by Western blot analysis; assay type: functional, organism-based; settings: dose 5-20 mg/kg
PC-12 [9] = assay: Neuroprotective activity against t-BHP induced oxidative damage in rat PC12 cells model assessed as reduction in intracellular ROS level at 10 uM incubated for 24 hrs by DCFH-DA probe based analysis; assay type: functional, cell-based
Rattus norvegicus [10] = assay: In vivo activation of Nrf2 pathway in MCAO induced rat model assessed as increase in NRF2 level in nucleus at 5 to 20 mg/kg, iv by Western blot analysis; assay type: functional, organism-based; settings: dose 5-20 mg/kg
Rattus norvegicus [11] = assay: Upregulation of NRF2 level in MCAO rat model at 5 to 20 mg/kg, iv by Western blot analysis; assay type: functional, organism-based; settings: dose 5-20 mg/kg
PC-12 [12] = assay: Neuroprotective activity against t-BHP induced oxidative damage in rat PC12 cells model assessed as increase in SOD activity at 2.5 uM incubated for 24 hrs; assay type: functional, cell-based
PC-12 [13] = assay: Neuroprotective activity against t-BHP induced oxidative damage in rat PC12 cells model assessed as decrease in MDA level at 10 uM incubated for 24 hrs; assay type: functional, cell-based
Rattus norvegicus [14] = assay: Neuroprotective activity against cerebral ischemia-reperfusion injury in MCAO rat model assessed as decrease in apoptotic cells in cerebral brain at 20 mg/kg, iv treated after 2 hrs ischemia followed by reperfusion measured after 1 week of post-reperfusion by TUNEL staining based analysis; assay type: functional, organism-based; settings: time 1.0 weeks
PC-12 [15] = assay: Downregulation of KEAP1 expression in rat PC12 cells at 10 uM incubated for 3 hrs by Western blot analysis; assay type: functional, cell-based
Rattus norvegicus [16] = assay: Neuroprotective activity against cerebral ischemia-reperfusion injury in MCAO rat model assessed as decrease in apoptotic cells in cerebral brain at 5 mg/kg, iv treated after 2 hrs ischemia followed by reperfusion measured after 1 week of post-reperfusion by TUNEL staining based analysis; assay type: functional, organism-based; settings: time 1.0 weeks
PC-12 [17] = assay: Cytotoxicity against rat PC12 cells assessed as cell viability at 40 uM incubated for 24 hrs by CCK-8 assay relative to control; assay type: functional; settings: read-out: Activity
PC-12 [18] = assay: Neuroprotective activity against t-BHP induced oxidative damage in rat PC12 cells model assessed as increase in NRF2 level incubated for 24 hrs by Western blot analysis; assay type: functional, cell-based; settings: dose 2.5-10 µM
PC-12 [19] = assay: Neuroprotective activity against t-BHP induced oxidative damage in rat PC12 cells model assessed as reduction in intracellular ROS level at 2.5 to 10 uM incubated for 24 hrs by DCFH-DA probe based flow cytometry analysis; assay type: functional, cell-based; settings: dose 2.5-10 µM
Rattus norvegicus [20] = assay: Neuroprotective activity against cerebral ischemia-reperfusion injury in MCAO rat model at 10 mg/kg, iv treated after 2 hrs ischemia followed by reperfusion measured after 1 week of post-reperfusion by barnes maze test; assay type: functional, organism-based; settings: time 1.0 weeks
PC-12 [21] = assay: Cytotoxicity against rat PC12 cells assessed as cell viability at 10 uM incubated for 24 hrs by CCK-8 assay relative to control; assay type: functional; settings: read-out: Activity
PC-12 [22] = assay: Neuroprotective activity against t-BHP induced oxidative damage in rat PC12 cells model assessed as attenuation of intracellular ROS level at 2.5 uM incubated for 24 hrs by DCFH-DA probe based analysis; assay type: functional, cell-based
PC-12 [23] = assay: Neuroprotective activity against t-BHP induced oxidative damage in rat PC12 cells model assessed as cell viability at 2.5 to 20 uM incubated for 24 hrs by CCK-8 assay; assay type: functional, cell-based; settings: dose 2.5-20 µM
PC-12 [24] = assay: Neuroprotective activity against t-BHP induced oxidative damage in rat PC12 cells model assessed as decrease in MDA level at 5 uM incubated for 24 hrs; assay type: functional, cell-based
[25] = molecular target: Kelch-like ECH-associated protein 1 (Rattus norvegicus) (UniProt P57790); assay: Binding affinity to KEAP1 in rat PC12 cells assessed as thermal stabilization at 10 uM incubated for 3 hrs at 4 degreeC by CETSA; assay type: cell-based
Sequence of Kelch-like ECH-associated protein 1 (Rattus norvegicus) (P57790 whole entry): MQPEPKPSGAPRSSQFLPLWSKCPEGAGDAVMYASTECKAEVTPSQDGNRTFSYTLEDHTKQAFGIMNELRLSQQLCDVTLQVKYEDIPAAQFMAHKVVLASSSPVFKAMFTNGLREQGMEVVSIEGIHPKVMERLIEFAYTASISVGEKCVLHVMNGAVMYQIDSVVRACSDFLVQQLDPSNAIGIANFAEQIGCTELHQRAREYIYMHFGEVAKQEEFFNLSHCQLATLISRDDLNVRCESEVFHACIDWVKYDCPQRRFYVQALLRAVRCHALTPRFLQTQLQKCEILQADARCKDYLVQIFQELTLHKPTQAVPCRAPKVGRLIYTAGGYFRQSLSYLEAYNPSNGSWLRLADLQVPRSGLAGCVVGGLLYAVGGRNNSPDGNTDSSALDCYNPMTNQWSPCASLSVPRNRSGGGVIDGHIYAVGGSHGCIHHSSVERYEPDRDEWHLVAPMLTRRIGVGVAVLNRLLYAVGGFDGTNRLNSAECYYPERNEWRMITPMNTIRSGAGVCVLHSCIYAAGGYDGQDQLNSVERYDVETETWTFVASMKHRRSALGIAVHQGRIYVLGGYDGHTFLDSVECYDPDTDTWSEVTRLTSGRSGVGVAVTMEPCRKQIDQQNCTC

PC-12 [26] = assay: Neuroprotective activity against t-BHP induced oxidative damage in rat PC12 cells model assessed as increase in HO-1 level incubated for 24 hrs by Western blot analysis; assay type: functional, cell-based; settings: dose 2.5-10 µM
PC-12 [27] = assay: Neuroprotective activity against t-BHP induced oxidative damage in rat PC12 cells model assessed as increase in SOD activity at 10 uM incubated for 24 hrs; assay type: functional, cell-based
Rattus norvegicus [28] = assay: In vivo activation of Nrf2 pathway in MCAO induced rat model assessed as increase in NRF2 level in cytoplasm at 5 to 20 mg/kg, iv by Western blot analysis; assay type: functional, organism-based; settings: dose 5-20 mg/kg
PC-12 [29] = assay: Neuroprotective activity against t-BHP induced oxidative damage in rat PC12 cells model assessed as increase in SOD activity at 5 uM incubated for 24 hrs; assay type: functional, cell-based
[30] = Metabolic stability in rat liver microsome assessed as parent compound remaining after 60 mins; assay type: ADME; settings: liver microsomes, read-out: Stability
PC-12 [31] = assay: Neuroprotective activity against t-BHP induced oxidative damage in rat PC12 cells model assessed as decrease in MDA level at 2.5 uM incubated for 24 hrs; assay type: functional, cell-based
Rattus norvegicus [32] = assay: In vivo activation of Nrf2 pathway in MCAO induced rat model assessed as increase in NRF2 level in brain at 5 to 20 mg/kg, iv by immunofluorescence analysis; assay type: functional, organism-based; settings: dose 5-20 mg/kg
Rattus norvegicus [33] = assay: Neuroprotective activity against cerebral ischemia-reperfusion injury in MCAO rat model assessed as reduction in infarct area at 5 to 20 mg/kg, iv treated after 2 hrs ischemia followed by reperfusion measured after 1 week of post-reperfusion by TTC staining based analysis; assay type: functional, organism-based; settings: dose 5-20 mg/kg, time 1.0 weeks

COc1ccc(/C=C/C(=O)c2ccc(O)c(O)c2)c2cc(-c3ccc(C)cc3)oc12
95%: viability at 10 µM (PC-12 [5])
active: Activity (PC-12 [1]) | Activity (Rattus norvegicus [2]) | Activity (PC-12 [3]) | Activity (Rattus norvegicus [6]) | Activity (Rattus norvegicus [7]) | Activity (Rattus norvegicus [8]) | Activity (PC-12 [9]) | Activity (Rattus norvegicus [11]) | Activity (PC-12 [12]) | Activity (PC-12 [13]) | Activity (Rattus norvegicus [14]) | Activity (PC-12 [15]) | Activity (Rattus norvegicus [16]) | Activity (PC-12 [18]) Dose-dependent-effect | Activity (PC-12 [19]) | Activity (Rattus norvegicus [20]) | Activity (PC-12 [22]) | Activity (PC-12 [23]) | Activity (PC-12 [24]) | Activity [25] | Activity (PC-12 [26]) Dose-dependent-effect | Activity (PC-12 [27]) | Activity (Rattus norvegicus [28]) | Activity (PC-12 [29]) | Activity (PC-12 [31]) | Activity (Rattus norvegicus [32]) | Activity (Rattus norvegicus [33])
inactive: Activity (Rattus norvegicus [10])
63.8%: remaining at 1 h [30]
109%: viability at 40 µM (PC-12 [17])
7.46 ×10⁻⁶ cm/s: Papp at 10 µM [4]
101%: viability at 10 µM (PC-12 [21])

— ChEMBL document CHEMBL6177962, “Design, synthesis and biological evaluation of 2-arylbenzo[b]furan-4-vinylcarbonyl derivatives based on Salvianolic acid C as antioxidant neuroprotective agents for the treatment of ischemic stroke” (Eur J Med Chem, 2025)
